# Results reported in patent US9150577B2, “Heterocyclic compounds containing an indole core” (Boehringer Ingelheim International GmbH, priority 2009, dated 2015).
# pIC50: −log10 of the molar value.
# Target: Human RSK2 (Homo sapiens (Human), UniProt P51812)
# Assay: Human RSK2 assay (Kinase Glo Plus, residual ATP);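 also: recombinant human RSK2 phosphorylating a substrate peptide, 90 min at 28 °C, leftover ATP read by luminescence, RLU scaled between no-kinase background and uninhibited kinase controls, 4-parameter fit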
# Assay type: biochemical
# Chain of Human RSK2 (P51812 whole entry): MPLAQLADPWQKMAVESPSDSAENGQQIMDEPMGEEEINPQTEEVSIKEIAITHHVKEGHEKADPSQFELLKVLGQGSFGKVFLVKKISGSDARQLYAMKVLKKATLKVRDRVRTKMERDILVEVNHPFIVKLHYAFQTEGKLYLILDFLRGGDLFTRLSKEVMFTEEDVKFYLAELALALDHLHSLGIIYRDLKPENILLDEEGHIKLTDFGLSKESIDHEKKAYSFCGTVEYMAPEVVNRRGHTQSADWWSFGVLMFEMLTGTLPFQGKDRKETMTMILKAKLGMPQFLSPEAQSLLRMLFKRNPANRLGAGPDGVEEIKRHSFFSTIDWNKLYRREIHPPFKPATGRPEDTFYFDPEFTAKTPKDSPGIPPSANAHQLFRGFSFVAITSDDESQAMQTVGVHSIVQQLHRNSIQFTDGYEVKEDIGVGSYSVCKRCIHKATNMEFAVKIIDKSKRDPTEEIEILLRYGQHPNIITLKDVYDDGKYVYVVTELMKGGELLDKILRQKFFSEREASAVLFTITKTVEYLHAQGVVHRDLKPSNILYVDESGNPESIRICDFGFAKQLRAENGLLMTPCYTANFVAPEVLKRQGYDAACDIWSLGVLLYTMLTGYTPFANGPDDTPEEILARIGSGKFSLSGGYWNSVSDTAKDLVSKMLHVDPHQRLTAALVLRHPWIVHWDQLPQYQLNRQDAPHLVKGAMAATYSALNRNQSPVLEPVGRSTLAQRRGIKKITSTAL
row,Compound,pIC50
1,"CN1CCC(Cn2c(NC(=O)c3ccc4cc5n(c4c3)CCCNC5=O)nc3ccccc32)CC1 [Example 88, N-{1-[(1-methylpiperidin-4-yl)methyl]-1H-benzimidazol-2-yl}-1-oxo-2,3,4,5-tetrahydro-1H-[1,4]diazepino[1,2-a]indole-8-carboxamide]",7.68
2,"C[C@H]1NC(=O)c2cc3ccc(C(=O)Nc4cnn(C)c4)cc3n2[C@H]1C (relative stereo) [Example 21, cis-3,4-dimethyl-N-(1-methyl-1H-pyrazol-4-yl)-1-oxo-1,2,3,4-tetrahydropyrazino[1,2-a]indole-7-carboxamide]",8.37
3,"O=C(Nc1ccn(Cc2ccc(F)cc2)n1)c1ccc2cc3n(c2c1)CCCNC3=O [Example 12, N-[1-(4-fluorobenzyl)-1H-pyrazol-3-yl]-1-oxo-2,3,4,5-tetrahydro-1H-[1,4]diazepino[1,2-a]indole-8-carboxamide]",6.66
4,"CC(C)n1c(NC(=O)c2ccc3cc4n(c3c2)C(C)(C)CNC4=O)nc2ccccc21 [Example 73, 4,4-dimethyl-1-oxo-N-[1-(propan-2-yl)-1H-benzimidazol-2-yl]-1,2,3,4-tetrahydropyrazino[1,2-a]indole-7-carboxamide]",8.70
5,"Cc1ccccc1Cn1cc(NC(=O)c2ccc3cc4n(c3c2)CCCNC4=O)cn1 [Example 34, N-[1-(2-methylbenzyl)-1H-pyrazol-4-yl]-1-oxo-2,3,4,5-tetrahydro-1H-[1,4]diazepino[1,2-a]indole-8-carboxamide]",8.10
6,"CC1CNC(=O)c2cc3ccc(C(=O)Nc4cc(C(C)(C)C)on4)cc3n21 (stereo not shown) [Example 176, N-(5-tert-butyl-1,2-oxazol-3-yl)-4-methyl-1-oxo-1,2,3,4-tetrahydropyrazino[1,2-a]indole-7-carboxamide]",7.60
7,"O=C(Nc1cnn(CCc2ccccc2)c1)c1ccc2cc3n(c2c1)CCCNC3=O [Example 113, 1-oxo-N-[1-(2-phenylethyl)-1H-pyrazol-4-yl]-2,3,4,5-tetrahydro-1H-[1,4]diazepino[1,2-a]indole-8-carboxamide]",7.77

# Now from value to compound:
row,pIC50,Compound
1,5.60,"CC1(C)CNC(=O)c2cc3ccc(C(=O)Nc4cn[nH]c4)cc3n2C1 [Example 16, 4,4-dimethyl-1-oxo-N-(1H-pyrazol-4-yl)-2,3,4,5-tetrahydro-1H-[1,4]diazepino[1,2-a]indole-8-carboxamide]"
2,5.39,"Cc1ccc(-c2cccc(NC(=O)c3ccc4cc5n(c4c3)CCCNC5=O)c2)s1 [Example 228, N-[3-(5-methylthiophen-2-yl)phenyl]-1-oxo-2,3,4,5-tetrahydro-1H-[1,4]diazepino[1,2-a]indole-8-carboxamide]"
3,8.70,"C[C@H]1CNC(=O)c2cc3ccc(C(=O)Nc4nc5ccccc5n4CCCN(C)C)cc3n2[C@H]1C (relative stereo) [Example 92, N-{1-[3-(dimethylamino)propyl]-1H-benzimidazol-2-yl}-cis-4,5-dimethyl-1-oxo-2,3,4,5-tetrahydro-1H-[1,4]diazepino[1,2-a]indole-8-carboxamide]"
4,6.47,"Cn1cc(NC(=O)c2ccc3cc4n(c3c2)CC(C)(C)CNC4=O)cn1 [Example 163, 4,4-dimethyl-N-(1-methyl-1H-pyrazol-4-yl)-1-oxo-2,3,4,5-tetrahydro-1H-[1,4]diazepino[1,2-a]indole-8-carboxamide]"
5,7.02,"CC(C)(C)c1nnc(NC(=O)c2ccc3cc4n(c3c2)CCCNC4=O)s1 [Example 110, N-(5-tert-butyl-1,3,4-thiadiazol-2-yl)-1-oxo-2,3,4,5-tetrahydro-1H-[1,4]diazepino[1,2-a]indole-8-carboxamide]"
6,7.82,"C[C@H]1CNC(=O)c2cc3ccc(C(=O)Nc4nc5ccccc5n4CCCN(C)C)cc3n21 [Example 131, (4S)-N-{1-[3-(dimethylamino)propyl]-1H-benzimidazol-2-yl}-4-methyl-1-oxo-1,2,3,4-tetrahydropyrazino[1,2-a]indole-7-carboxamide]"
